In US8486945B2, “Heterocyclic inhibitors of an Hh-signal cascade, medicinal compositions based thereon and methods for treating diseases caused by the aberrant activity of an Hh-signal system” (priority 2007, dated 2013) one finds melting point and IC50 data, which are given here for 24 compounds.

For orientation: melting point means the temperature of the solid-liquid transition. For orientation: IC50 means the concentration needed to halve the response being measured.

One data set concerns Hh-signalling cascade. In words: Inhibition of SHh-induced alkaline phosphatase in C3H10T1/2 cells (Hh-signalling cascade inhibition). The data set is classed as cell-based. The settings on record: Mus musculus, C3H 10T1/2, half maximal inhibition of SHh (0.3 μg/ml) stimulation of cell alkaline phosphatase. The source says:
C3H10T1/2 Cells were used for identification of inhibitors of SHh-protein signaling cascade. SHh-protein activates C3H10T1/2 cells, that leads to their osteogenic differentiation [1) Kinto N., Iwamoto M., Enomoto-Iwamoto M., Noji S., Ohuchi H., Yoshioka H., Kataoka H., Wada Y., Yuhao G., Takahashi H. E., Yoshiki S., Yamaguchi A. Fibroblasts expressing Sonic hedgehog induce osteoblast differentiation and ectopic bone formation. FEBS Lett. 1997; 404(2-3): 319-23. 2) Spinella-Jaegle S., Rawadi G., Kawai S., Gallea S., Faucheu C., Mollat P., Courtois B., Bergaud B., Ramez V., Blanchet A. M., Adelmant G., Baron R., Roman-Roman S. Sonic hedgehog increases the commitment of pluripotent mesenchymal cells into the osteoblastic lineage and abolishes adipocytic differentiation. J. Cell Sci. 2001; 114(Pt 11): 2085-94] and, in particular, to expression enhancement of alkaline phosphatase enzyme.
The cells were cultivated in DMEM medium with 10% embryonal calfish serum in incubator at 37° C., 100% humidity and 5% CO2 content. The cells were placed in 384-well plates and left for night. On the next day the tested compounds in concentration of 10 μM were added to the cells, incubated for 30 min, then recombinant (R & D Systems, USA) SHh protein in concentration of 0.3 μg/ml was added and incubation was continued for 3 days. Cells with DMSO instead of a test compound and cells without SHh protein were used as test control. For determination of the cell alkaline phosphatase activity the cells were lysed in the buffer containing 0.2% Triton-X100, lisates were incubated together with proluminescent substrate CSPD (Applied Biosystems, USA) and the resultant luminescence was measured using reader VICTOR^2V (PerkinElmer, USA).
The ability of the compounds to inhibit Hh-signalling cascade was determined using C3H10T1/2 cells in 384-well plates as described in example 1. The compounds were added in triplicates in various concentrations, prepared by multiple dilution of starting solutions (concentration dependences of cell alkaline phosphatase inhibition induced by the addition of tested compounds are shown in FIG. 1). Activity of the compounds was characterized by their concentrations produced half maximal inhibition of stimulation of cell alkaline phosphatase SHh (IC50).

`Cc1nn(CC(=O)N2CCN(c3cccc(Cl)c3)CC2)c(=O)c2nn(-c3ccccc3)c(C)c12` [I-1002, 2-phenyl-3,4-dimethyl-6-{2-[4-(3-chlorophenyl)piperazin-1-yl]-2-oxoethyl}-2,6-dihydro-7H-pyrazolo[3,4-d]pyridazin-7-one] showed a melting point of 257 to 259 °C. For the same compound, in the data set with Hh-signalling cascade, the IC50 was < 500 nM. `Cc1nn(CC(=O)N2CCN(c3ccccc3)CC2)c(=O)c2nn(-c3ccccc3)c(C)c12` [I-1003, 2-Phenyl-3,4-dimethyl-6-{2-[4-phenylpiperazin-1-yl]-2-oxoethyl}-2,6-dihydro-7H-pyrazolo[3,4-c]pyridazin-7-one] gave a melting point of 252 to 254 °C. Also, the IC50 with Hh-signalling cascade is < 500 nM.

The compound `Cc1cccc(N2CCN(C(=O)Cn3nc(C)c4c(C)n(-c5ccccc5)nc4c3=O)CC2)c1C` [I-1004, 2-Phenyl-3,4-dimethyl-6-{2-[4-(2,3-dimethylphenyl)piperazin-1-yl]-2-oxoethyl}-2,6-dihydro-7H-pyrazolo[3,4-d]pyridazin-7-one] came in with a melting point of 249 to 251 °C. In addition, the IC50 in the data set with Hh-signalling cascade is < 500 nM. `Cc1ccc(C)c(N2CCN(C(=O)Cn3nc(C)c4c(C)n(-c5ccccc5)nc4c3=O)CC2)c1` [I-1005, 2-Phenyl-3,4-dimethyl-6-{2-[4-(2,5-dimethylphenyl)piperazin-1-yl]-2-oxoethyl}-2,6-dihydro-7H-pyrazolo[3,4-d]pyridazin-7-one] yielded a melting point of 232 to 234 °C. For the same compound, in the data set on Hh-signalling cascade, the IC50 was < 500 nM. Taken in the same sequence, the figures for `Cc1nn(CC(=O)N2CCN(c3ccc(F)cc3)CC2)c(=O)c2nn(-c3ccccc3)c(C)c12` [I-1006, 2-Phenyl-3,4-dimethyl-6-{2-[4-(4-fluorophenyl)piperazin-1-yl]-2-oxoethyl}-2,6-dihydro-7H-pyrazolo[3,4-d]pyridazin-7-one] were 257 to 259 °C and < 500 nM. Taken in the same sequence, the figures for `Cc1nn(CC(=O)N2CCN(c3ccccc3F)CC2)c(=O)c2nn(-c3ccccc3)c(C)c12` [I-1007, 2-Phenyl-3,4-dimethyl-6-{2-[4-(2-fluorophenyl)piperazin-1-yl]-2-oxoethyl}-2,6-dihydro-7H-pyrazolo[3,4-d]pyridazin-7-one] were 240 to 242 °C and < 500 nM. With `CN1CCN(C(=O)C2CCN(C(=O)c3cc4sccc4n3Cc3cccc(F)c3)CC2)CC1` [V-1050, [4-(3-Fluorobenzyl)-4H-thieno[3,2-b]pyrrol-5-yl]-[4-(4-methylpiperazine-1-carbonyl)piperidin-1-yl]methanone], the IC50 with Hh-signalling cascade was < 500 nM.

Consider `CN1CCN(C(=O)C2CCN(C(=O)c3cc4sccc4n3Cc3ccccc3F)CC2)CC1` [V-1051, [4-(2-Fluorobenzyl)-4H-thieno[3,2-b]pyrrol-5-yl]-[4-(4-methylpiperazine-1-carbonyl)piperidin-1-yl]methanone], for which the IC50 in the data set with Hh-signalling cascade is < 500 nM. As for `CN1CCN(C(=O)C2CCN(C(=O)c3cc4sccc4n3Cc3ccccc3Cl)CC2)CC1` [V-1052, [4-(2-Chlorobenzyl)-4H-thieno[3,2-b]pyrrol-5-yl]-[4-(4-methylpiperazine-1-carbonyl)piperidin-1-yl]methanone], the IC50 with Hh-signalling cascade is < 500 nM. Still for that read-out and setting: next, `COc1ccc(Cn2c(C(=O)N3CCC(C(=O)N4CCN(C)CC4)CC3)cc3sccc32)cc1` [V-1053, [4-(4-Methoxybenzyl)-4H-thieno[3,2-b]pyrrol-5-yl]-[4-(4-methylpiperazine-1-carbonyl)piperidin-1-yl]methanone]: < 500 nM.

Regarding `CN1CCN(C(=O)C2CCN(C(=O)c3cc4sccc4n3Cc3ccc(N(C)C)cc3)CC2)CC1` [V-1054, [4-(4-Dimethylaminobenzyl)-4H-thieno[3,2-b]pyrrol-5-yl]-[4-(4-methylpiperazine-1-carbonyl)piperidin-1-yl]methanone], the IC50 in the data set with Hh-signalling cascade is < 500 nM. Same read-out and setting: then `CN1CCN(C(=O)C2CCN(C(=O)c3cc4sccc4n3Cc3ccc4c(c3)OCO4)CC2)CC1` [V-1055, [4-(3,4-Methylendioxybenzyl)-4H-thieno[3,2-b]pyrrol-5-yl]-[4-(4-methylpiperazine-1-carbonyl)piperidin-1-yl]methanone], with < 500 nM.

Take `CCOc1ccc(NC(=O)c2ccnc(N3CCC(C(=O)Nc4ccc(F)cc4)CC3)c2)cc1` [VI-1007, 3,4,5,6-Tetrahydro-2H-[1,2′]bipyridinyl-4,4′-carboxylic acid 4′-[(4-ethoxyphenyl)amide] 4-[(4-fluorophenyl)amide]]: the IC50 with Hh-signalling cascade was < 5000 nM. The same measure, in the same setting: then `CS(=O)(=O)N1CCCc2cc(C(=O)Nc3ccc4c(c3)OCO4)ccc21` [VII-1005, 1-Methylsulfonyl-1,2,3,4-tetrahydroquinoline-6-carboxylic acid (benzo[1,3]dioxol-5-yl)amide], with < 500 nM; and `O=C(Nc1ccc(F)cc1)c1ccc2c(c1)CCCN2S(=O)(=O)c1ccccc1` [VII-1012, 1-Phenylsulfonyl-1,2,3,4-tetrahydroquinoline-6-carboxylic acid (4-fluorophenyl)amide], with < 5000 nM. Same read-out and setting: then `COc1ccc(NC(=O)c2ccc3c(c2)CCCN3S(=O)(=O)c2ccc(C)cc2)cc1` [VII-1014, 1-Tosyl-1,2,3,4-tetrahydroquinoline-6-carboxylic acid (4-methoxyphenyl)amide], with < 5000 nM. On to `Cc1ccc(NC(=O)c2ccc3c(c2)CCCN3S(=O)(=O)c2ccc(Cl)cc2)cc1C` [VII-1017, 1-(4-Chlorophenylsulfonyl)-1,2,3,4-tetrahydroquinoline-6-carboxylic acid (3,4-dimethylphenyl)amide], for which the IC50 in the data set with Hh-signalling cascade is < 500 nM. Same read-out and setting: next, `Cc1ccc(NC(=O)c2ccc3c(c2)CCCN3S(=O)(=O)c2ccc(Br)cc2)cc1` [VII-1020, 1-(4-Bromophenylsulfonyl)-1,2,3,4-tetrahydroquinoline-6-carboxylic acid p-tolylamide]: < 5000 nM; `CCS(=O)(=O)N1CCCc2cc(C(=O)Nc3ccccc3F)ccc21` [VII-1025, 1-Ethylsulfonyl-1,2,3,4-tetrahydroquinoline-6-carboxylic acid (2-fluorophenyl)amide]: < 5000 nM. Turning to `CN1CCc2c(sc(NC(=O)C3CC3)c2-c2nc3ccccc3s2)C1` [VIII-1003, Cyclopropanecarboxylic acid (3-benzo[d]thiazol-2-yl-6-methyl-4,5,6,7-tetrahydrothieno[2,3-c]pyridin-2-yl)amide], the IC50 with Hh-signalling cascade is < 5000 nM. For `CC(=O)N1CCc2c(sc(NC(=O)C3CCCCC3)c2-c2nc3ccccc3s2)C1` [VIII-1016, Cyclohexanecarboxylic acid (6-acetyl-3-benzo[d]thiazol-2-yl-4,5,6,7-tetrahydrothieno[2,3-c]pyridin-2-yl)amide], in the data set with Hh-signalling cascade, the IC50 is < 5000 nM. As to `CC(=O)N1CCc2c(sc(NC(=O)Cc3ccccc3)c2-c2nc3ccccc3s2)C1` [VIII-1017, N-(6-Acetyl-3-benzo[d]thiazol-2-yl-4,5,6,7-tetrahydrothieno[2,3-c]pyridin-2-yl)-2-phenylacetamide], in the data set with Hh-signalling cascade, the IC50 is < 50000 nM.

In the case of `COC(=O)c1ccc(C(=O)Nc2sc3c(c2-c2nc4ccccc4s2)CCN(C(C)C)C3)cc1` [VIII-1025], the half-maximal inhibitory concentration (IC50) in the data set on Hh-signalling cascade was < 50000 nM.

As for `CN1CCc2c(sc(NC(=O)c3cccc(C(F)(F)F)c3)c2-c2nc3ccccc3s2)C1` [VIII-1026, N-(3-(Benzo[d]thiazol-2-yl)-6-methyl-4,5,6,7-tetrahydrothieno[2,3-c]pyridin-2-yl)-3-trifluoromethylbenzamide], the IC50 with Hh-signalling cascade is < 50000 nM.
